Measured values: patent publication US20230301300A1, “HERBICIDAL COMPOSITIONS” (SYNGENTA CROP PROTECTION AG, priority 2020, published 2023)

How the values were obtained:
Format in all cases: in vivo
[1] = tested on: Amaranthus retoflexus (AMARE); assay: B1 Post-Emergence Efficacy - Test 1; details: 1000 g/ha, after 13 days, five point scale
Method in brief: (§1)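 Glasshouse post-emergence test: compound at 1000 g/ha sprayed on plants 8 days after sowing, controlled 24/16° C. day/night with 14 h light. Percentage damage read at 13 days, banded into five classes, 5 meaning 80-100%.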

[2] = tested on: Echinochloa crus-galli (ECHCG); assay: B1 Post-Emergence Efficacy - Test 1; details: 1000 g/ha, after 13 days, five point scale
Method in brief: as §1

[3] = tested on: Ipomoea hederacea (IPOHE); assay: B1 Post-Emergence Efficacy - Test 1; details: 1000 g/ha, after 13 days, five point scale
Method in brief: as §1

Lolium perenne (LOLPE) [4] = assay: B1 Post-Emergence Efficacy - Test 1; details: 1000 g/ha, after 13 days, five point scale
Method in brief: as §1

Setaria faberi (SETFA) [5] = assay: B1 Post-Emergence Efficacy - Test 1; details: 1000 g/ha, after 13 days, five point scale
Method in brief: as §1

Solanum nigrum (SOLNI) = assay: B1 Post-Emergence Efficacy - Test 1; details: 1000 g/ha, after 13 days, five point scale
Method in brief: as §1

Bidens pilosa (BIDPI) = assay: B2 Post-Emergence Efficacy - Test 2; details: 15 days after application, 0-100 scale
Method: (§2) Seeds of a variety of test species (see Table B1) were sown in standard soil in pots. After cultivation for 12 days (post-emergence) under controlled conditions in a glasshouse (at 24/18° C. or 20/16° C., at day/night; 16 hours light; 65% humidity), the plants were sprayed with an aqueous spray solution derived from the formulation of the technical active ingredient dissolved in IF50 (see Table B2 for composition) and adjuvant (Genapol X080) was added to the spray solution at a rate of 0.2% v/v.
(§3) After application, the test plants were grown in a glasshouse under controlled conditions (as above) and watered twice daily. Herbicidal activity was evaluated 15 days after application on a 0-100 scale. The results, where 0=no damage to test plant and 100=total kill of test plant are shown below in Tables 8 to 11.

[6] = tested on: Brachiaria plantaginea (BRAPL); assay: B2 Post-Emergence Efficacy - Test 2; details: 15 days after application, 0=no damage, 100=total kill
Method: as §2, §3

[7] = tested on: Digitaria sanguinalis (DIGSA); assay: B2 Post-Emergence Efficacy - Test 2; details: 15 days after application, 0=no damage, 100=total kill
Method: as §2, §3

Galium aparine (GALAP) = assay: B2 Post-Emergence Efficacy - Test 2; details: 15 days after application, 0-100 scale
Method: as §2, §3

Hordeum vulgare (HORVW) = assay: B2 Post-Emergence Efficacy - Test 2; details: 15 days after application, 0-100 scale
Method: as §2, §3

Kochia scoparia (KSHSC) = assay: B2 Post-Emergence Efficacy - Test 2; details: 15 days after application, 0-100 scale
Method: as §2, §3

Lolium perenne (LOLPE) [8] = assay: B2 Post-Emergence Efficacy - Test 2; details: 15 days after application, 0-100 scale
Method: as §2, §3

Orysa sativa (ORYSA) = assay: B2 Post-Emergence Efficacy - Test 2; details: 15 days after application; for Herbicidal activity ORYSA: 0-100 scale; for Herbicidal activity on a 0-100 scale, ORYSA: 0=no damage, 100=total kill
Method: as §2, §3

Setaria faberi (SETFA) [9] = assay: B2 Post-Emergence Efficacy - Test 2; details: 15 days after application, 0=no damage, 100=total kill
Method: as §2, §3

Sinapis arvensis (SINAR) = assay: B2 Post-Emergence Efficacy - Test 2; details: 15 days after application, 0-100 scale
Method: as §2, §3

Zea mays (ZEAMX) = assay: B2 Post-Emergence Efficacy - Test 2; details: 15 days after application; for Herbicidal activity ZEAMX: 0-100 scale; for Herbicidal activity on a 0-100 scale, ZEAMX: 0=no damage, 100=total kill
Method: as §2, §3

Cc1nn(C)c(=O)c(-c2c(F)ccc(Cl)c2CCc2ccc(F)cc2)c1O [Compound 1.048, 4-[3-chloro-6-fluoro-2-[2-(4-fluorophenyl)ethyl]phenyl]-5-hydroxy-2,6-dimethyl-pyridazin-3-one] was tested, and the “percentage damage caused to the plant, AMARE” value [1] was 5 (5=80-100%), the “percentage damage caused to the plant, ECHCG” value [2] was 5 (5=80-100%) and the “percentage damage caused to the plant, IPOHE” value [3] was 5 (5=80-100%). For the same molecule, the “percentage damage caused to the plant, LOLPE” value (Lolium perenne (LOLPE) [4]) was 5 (5=80-100%), the “percentage damage caused to the plant, SETFA” value (Setaria faberi (SETFA) [5]) was 5 (5=80-100%) and the “percentage damage caused to the plant, SOLNI” value (Solanum nigrum (SOLNI)) was 5 (5=80-100%). For the same molecule, the “Herbicidal activity BIDPI” value (Bidens pilosa (BIDPI); 15 g/Ha) was 70, the “Herbicidal activity BIDPI” value (Bidens pilosa (BIDPI); 30 g/Ha) was 70 and the “Herbicidal activity BIDPI” value (Bidens pilosa (BIDPI); 60 g/Ha) was 70. For the same molecule, the “Herbicidal activity BIDPI” value (Bidens pilosa (BIDPI); 125 g/Ha) was 70, the “Herbicidal activity BIDPI” value (Bidens pilosa (BIDPI); 250 g/Ha) was 100 and the “Herbicidal activity BIDPI” value (Bidens pilosa (BIDPI); 500 g/Ha) was 100. The “Herbicidal activity on a 0-100 scale, BRAPL” value (from here on “Herbicidal activity … BRAPL”) ([6]; 15 g/Ha) was 20, the “Herbicidal activity … BRAPL” value ([6]; 30 g/Ha) was 60 and the “Herbicidal activity … BRAPL” value ([6]; 60 g/Ha) was 80. The “Herbicidal activity … BRAPL” value ([6]; 125 g/Ha) was 80, the “Herbicidal activity … BRAPL” value ([6]; 250 g/Ha) was 90 and the “Herbicidal activity … BRAPL” value ([6]; 500 g/Ha) was 100. The “Herbicidal activity on a 0-100 scale, DIGSA” value (“Herbicidal activity … DIGSA” for short) ([7]; 15 g/Ha) was 0, the “Herbicidal activity … DIGSA” value ([7]; 30 g/Ha) was 10 and the “Herbicidal activity … DIGSA” value ([7]; 60 g/Ha) was 20. The “Herbicidal activity … DIGSA” value ([7]; 125 g/Ha) was 20, the “Herbicidal activity … DIGSA” value ([7]; 250 g/Ha) was 50 and the “Herbicidal activity … DIGSA” value ([7]; 500 g/Ha) was 70. For the same molecule, the “Herbicidal activity GALAP” value (Galium aparine (GALAP); 15 g/Ha) was 20, the “Herbicidal activity GALAP” value (Galium aparine (GALAP); 30 g/Ha) was 30 and the “Herbicidal activity GALAP” value (Galium aparine (GALAP); 60 g/Ha) was 50. For the same molecule, the “Herbicidal activity GALAP” value (Galium aparine (GALAP); 125 g/Ha) was 60, the “Herbicidal activity GALAP” value (Galium aparine (GALAP); 250 g/Ha) was 60 and the “Herbicidal activity GALAP” value (Galium aparine (GALAP); 500 g/Ha) was 80. For the same molecule, the “Herbicidal activity HORVW” value (Hordeum vulgare (HORVW); 15 g/Ha) was 10, the “Herbicidal activity HORVW” value (Hordeum vulgare (HORVW); 30 g/Ha) was 10 and the “Herbicidal activity HORVW” value (Hordeum vulgare (HORVW); 60 g/Ha) was 10. For the same molecule, the “Herbicidal activity HORVW” value (Hordeum vulgare (HORVW); 125 g/Ha) was 40, the “Herbicidal activity HORVW” value (Hordeum vulgare (HORVW); 250 g/Ha) was 40 and the “Herbicidal activity HORVW” value (Hordeum vulgare (HORVW); 500 g/Ha) was 80. For the same molecule, the “Herbicidal activity KCHSC” value (Kochia scoparia (KSHSC); 15 g/Ha) was 0, the “Herbicidal activity KCHSC” value (Kochia scoparia (KSHSC); 30 g/Ha) was 0 and the “Herbicidal activity KCHSC” value (Kochia scoparia (KSHSC); 60 g/Ha) was 10. The “Herbicidal activity KCHSC” value (Kochia scoparia (KSHSC); 125 g/Ha) was 20, the “Herbicidal activity KCHSC” value (Kochia scoparia (KSHSC); 250 g/Ha) was 50 and the “Herbicidal activity KCHSC” value (Kochia scoparia (KSHSC); 500 g/Ha) was 80. For the same molecule, the “Herbicidal activity LOLPE” value (Lolium perenne (LOLPE) [8]; 15 g/Ha) was 20, the “Herbicidal activity LOLPE” value (Lolium perenne (LOLPE) [8]; 30 g/Ha) was 40 and the “Herbicidal activity LOLPE” value (Lolium perenne (LOLPE) [8]; 60 g/Ha) was 90. For the same molecule, the “Herbicidal activity LOLPE” value (Lolium perenne (LOLPE) [8]; 125 g/Ha) was 90, the “Herbicidal activity LOLPE” value (Lolium perenne (LOLPE) [8]; 250 g/Ha) was 90 and the “Herbicidal activity LOLPE” value (Lolium perenne (LOLPE) [8]; 500 g/Ha) was 90. For the same molecule, the “Herbicidal activity ORYSA” value (Orysa sativa (ORYSA); 15 g/Ha) was 0, the “Herbicidal activity on a 0-100 scale, ORYSA” value (Orysa sativa (ORYSA); 15 g/Ha) was 0 and the “Herbicidal activity ORYSA” value (Orysa sativa (ORYSA); 30 g/Ha) was 0. For the same molecule, the “Herbicidal activity on a 0-100 scale, ORYSA” value (Orysa sativa (ORYSA); 30 g/Ha) was 0, the “Herbicidal activity ORYSA” value (Orysa sativa (ORYSA); 60 g/Ha) was 0 and the “Herbicidal activity on a 0-100 scale, ORYSA” value (Orysa sativa (ORYSA); 60 g/Ha) was 0. The “Herbicidal activity ORYSA” value (Orysa sativa (ORYSA); 125 g/Ha) was 0, the “Herbicidal activity on a 0-100 scale, ORYSA” value (Orysa sativa (ORYSA); 125 g/Ha) was 0 and the “Herbicidal activity ORYSA” value (Orysa sativa (ORYSA); 250 g/Ha) was 10. The “Herbicidal activity on a 0-100 scale, ORYSA” value (Orysa sativa (ORYSA); 250 g/Ha) was 10, the “Herbicidal activity ORYSA” value (Orysa sativa (ORYSA); 500 g/Ha) was 30 and the “Herbicidal activity on a 0-100 scale, ORYSA” value (Orysa sativa (ORYSA); 500 g/Ha) was 30. For the same molecule, the “Herbicidal activity on a 0-100 scale, SETFA” value (“Herbicidal activity … SETFA” for short) (Setaria faberi (SETFA) [9]; 15 g/Ha) was 0, the “Herbicidal activity … SETFA” value (Setaria faberi (SETFA) [9]; 30 g/Ha) was 40 and the “Herbicidal activity … SETFA” value (Setaria faberi (SETFA) [9]; 60 g/Ha) was 40. For the same molecule, the “Herbicidal activity … SETFA” value (Setaria faberi (SETFA) [9]; 125 g/Ha) was 70, the “Herbicidal activity … SETFA” value (Setaria faberi (SETFA) [9]; 250 g/Ha) was 80 and the “Herbicidal activity … SETFA” value (Setaria faberi (SETFA) [9]; 500 g/Ha) was 100. For the same molecule, the “Herbicidal activity SINAR” value (Sinapis arvensis (SINAR); 15 g/Ha) was 40, the “Herbicidal activity SINAR” value (Sinapis arvensis (SINAR); 30 g/Ha) was 80 and the “Herbicidal activity SINAR” value (Sinapis arvensis (SINAR); 60 g/Ha) was 80. For the same molecule, the “Herbicidal activity SINAR” value (Sinapis arvensis (SINAR); 125 g/Ha) was 90, the “Herbicidal activity SINAR” value (Sinapis arvensis (SINAR); 250 g/Ha) was 90 and the “Herbicidal activity SINAR” value (Sinapis arvensis (SINAR); 500 g/Ha) was 90. For the same molecule, the “Herbicidal activity ZEAMX” value (Zea mays (ZEAMX); 15 g/Ha) was 0, the “Herbicidal activity on a 0-100 scale, ZEAMX” value (Zea mays (ZEAMX); 15 g/Ha) was 0 and the “Herbicidal activity ZEAMX” value (Zea mays (ZEAMX); 30 g/Ha) was 10. The “Herbicidal activity on a 0-100 scale, ZEAMX” value (Zea mays (ZEAMX); 30 g/Ha) was 10, the “Herbicidal activity ZEAMX” value (Zea mays (ZEAMX); 60 g/Ha) was 50 and the “Herbicidal activity on a 0-100 scale, ZEAMX” value (Zea mays (ZEAMX); 60 g/Ha) was 50. The “Herbicidal activity ZEAMX” value (Zea mays (ZEAMX); 125 g/Ha) was 50, the “Herbicidal activity on a 0-100 scale, ZEAMX” value (Zea mays (ZEAMX); 125 g/Ha) was 50 and the “Herbicidal activity ZEAMX” value (Zea mays (ZEAMX); 250 g/Ha) was 70. The “Herbicidal activity on a 0-100 scale, ZEAMX” value (Zea mays (ZEAMX); 250 g/Ha) was 70, the “Herbicidal activity ZEAMX” value (Zea mays (ZEAMX); 500 g/Ha) was 100 and the “Herbicidal activity on a 0-100 scale, ZEAMX” value (Zea mays (ZEAMX); 500 g/Ha) was 100.
